{"source": "patent US20070042976A1", "about": "“Method of treating cosmetic and dermatologic conditions by a demethylating agent” (priority 2005, published 2007)", "key": {"alpha 2 collagen gene [1]": {"system": "alpha 2 collagen gene", "conditions": "resistant cells such as HaCaT, Hela and HepG2; cited from earlier work"}, "human fibroblasts": {"system": "human fibroblasts", "experiment": "Proliferation of human fibroblasts in culture", "type": "cell-based", "conditions": "previously found by applicant"}, "[2]": {"system": "Pro collagen alpha I gene", "conditions": "human rhabdomyosarcoma cells; cited from earlier work"}, "alpha 2 collagen gene [3]": {"system": "alpha 2 collagen gene", "conditions": "teratocarcinoma F9 cells; cited from earlier work"}, "[4]": {"system": "Human squamous cell carcinoma line (SCL-1) cells", "experiment": "Cell death in human squamous cell carcinoma line with or without UVB (MTT)", "type": "cell-based", "conditions": "for % Cell Death with UV: UV alone 22 +/− 0.1", "description": "Determination of Cell Death in Response to 5-azacytidine in Human Squamous Cell Carcinoma Line\nHuman squamous cell carcinoma line (SCL-1) cells were grown in DMEM medium with 10% FCS. 5-azacytidine was added at the indicated concentrations after the cells reached 100% confluence. The cultures were incubated for 24 hrs at 37° C. and then washed in Hepes buffer (pH=7.4) with isotonic salt and exposed to UVB radiation. Cell death was determined using MTT [3-(4, 5-dimethylthiazol-2-yl)-2, 5-diphenyltetrazolium bromide] kit obtained from Sigma. Each concentration of the drug was tested in six wells and the degree of inhibition (vs. controls of untreated cultures) was given as an average (% cell death +/−standard deviation).\nThe human squamous cells (SCL-1) were grown to about 50% confluence. The cultures were treated with minimal amount of 5-azacytidine, UV radiation, or the combination and cell viability was quantified. […] The exposure of the cells to UV, in the absence of the drug induced a cytotoxic effect in about 22% of the cells. Together, the combination of both UV and 5-azacytidine induced cell death at about 50% of the cancer cells."}, "collagen type IV gene": {"system": "collagen type IV gene", "conditions": "transformed rat liver cells; cited from earlier work"}, "collagen gene expression": {"system": "collagen gene expression", "conditions": "human cancer cells, including fibrosarcomas and breast carcinoma; cited from earlier work"}, "pieces of human skin": {"system": "pieces of human skin", "experiment": "Incorporation of labeled proline into pieces of human skin (collagen biosynthesis, skin organ culture)", "conditions": "for Collagen (DPM/mg tissue): control 333"}, "normal human fibroblasts": {"system": "normal human fibroblasts", "experiment": "Human fibroblasts collagen synthesis assay (14C-proline incorporation, collagenase-labile counts)", "type": "cell-based", "parameters": "reduction of the amount of collagen synthesized: dose or concentration left out as unconfirmed", "conditions": "for Collagen (DPM/cell) with TGF β 1: with TGF β 1 (10 ng/ml), control 9945 +/− 602; for Collagen (DPM/cell) without TGF β 1: control 5267 +/− 1079", "description": "Human Fibroblasts Collagen Synthesis Assay\nHuman fibroblasts were grown in DMEM (10% FCS) in 24-wells plates to approximately 50% confluence. 5-azacytidine (from Sigma) was added for 5 hrs of 37° C. TGF-β1 was added (10 ng/ml) for 2 hours (hrs) at 37° C. Then, L-[U-14C]-proline solution (specific radioactivity 269 mCi/mmol) was added (1.25 μCi/well) and incubated for 20 hrs at 37° C. The cells were then washed with 5 mM proline in PBS and 5 mM proline in 70% methanol and incubated at […] for 20 hrs. […] After 20 hrs, the collagenase treated cultures were centrifuged and a new collagenase solution was added to the cells. The cultures were incubated with the enzyme for an additional 20 hrs. Proline incorporated into protein and released by collagenase treatment is defined as “collagen”. Incorporation of labeled proline into collagen was evaluated by scintillation counting of supernatants. In parallel, the cultures were checked for vitality using a 3-(4, 5-dimethylthiazol-2-yl)-2, 5-diphenyltetrazolium bromide (MTT) reaction. Each concentration of 5-azacytidine was analyzed (n=6), and the effect of 5-azacytidine on collagen synthesis were expressed as averaged DPM per number of viable cells +/− standard deviation.\nHuman fibroblasts were grown to about 50% confluence and exposed to medium with or without TGF β."}, "[5]": {"conditions": "Azacytidine 4.8 ug/ml, listed as Azacytidine"}}, "note": "Marks after values point to notes of the source that are not given here."}
{"smiles": "Nc1ncn([C@@H]2O[C@H](CO)[C@@H](O)[C@H]2O)c(=O)n1", "note": "[5-azacytidine]", "values": [{"measurement": "effect on alpha 2 collagen gene", "setting": "alpha 2 collagen gene [1]", "result": "reactivated"}, {"measurement": "effect on proliferation of fibroblasts in culture", "setting": "human fibroblasts", "result": "inhibits the proliferation"}, {"measurement": "effect on transcription of Pro collagen alpha I gene", "setting": "[2]", "result": "transcriptional activation of the Pro collagen alpha I gene"}, {"measurement": "effect on transcription of alpha 2 collagen gene", "setting": "alpha 2 collagen gene [3]", "result": "induces transcription of alpha 2 collagen gene"}, {"measurement": "% Cell Death with UV", "setting": "[4]; Azacytidine 0.53 ug/ml", "result": "19 +/− 0.5%"}, {"measurement": "% Cell Death without UVB", "setting": "[4]; Azacytidine 0.53 ug/ml", "result": "2 +/− 0.7* %"}, {"measurement": "% Cell Death with UV", "setting": "[4]; Azacytidine 1.6 ug/ml", "result": "21 +/− 0.6%"}, {"measurement": "% Cell Death without UVB", "setting": "[4]; Azacytidine 1.6 ug/ml", "result": "5 +/− 0.3* %"}, {"measurement": "% Cell Death with UV", "setting": "[4]; Azacytidine 4.8 ug/ml", "result": "about 50%"}, {"measurement": "% Cell Death with UV", "setting": "[4]; [5]", "result": "50 +/− 0.2%"}, {"measurement": "% Cell Death without UVB", "setting": "[4]; Azacytidine 4.8 ug/ml", "result": "about 29%"}, {"measurement": "% Cell Death without UVB", "setting": "[4]; [5]", "result": "29 +/− 13* %"}, {"measurement": "IC50", "setting": "[4]; Homo sapiens, SCL-1, 5-Azacytidine alone (no UV)", "result": 11, "unit": "µg/mL"}, {"measurement": "combined effect of photo damage and drug on viability", "setting": "[4]; UV plus 5-azacytidine", "result": "additive effect"}, {"measurement": "effect on transcription of collagen type IV gene", "setting": "collagen type IV gene", "result": "increases transcription of the collagen type IV gene"}, {"measurement": "effect on collagen gene expression", "setting": "collagen gene expression", "result": "increased or reactivated collagen gene expression"}, {"measurement": "effect on collagen biosynthesis by human skin", "setting": "pieces of human skin", "result": "inhibited collagen biosynthesis in a dose dependent manner"}, {"measurement": "% Inhibition of collagen", "setting": "pieces of human skin; Azacytidine 6.25 ug/ml", "result": 40, "unit": "%"}, {"measurement": "Collagen (DPM/mg tissue)", "setting": "pieces of human skin; Azacytidine 6.25 ug/ml", "result": "199 +/− 34* DPM/mg tissue"}, {"measurement": "% Inhibition of collagen", "setting": "pieces of human skin; Azacytidine 25 ug/ml", "result": 48, "unit": "%"}, {"measurement": "Collagen (DPM/mg tissue)", "setting": "pieces of human skin; Azacytidine 25 ug/ml", "result": "174 +/− 53* DPM/mg tissue"}, {"measurement": "% Inhibition of collagen", "setting": "pieces of human skin; Azacytidine 100 ug/ml", "result": 72, "unit": "%"}, {"measurement": "Collagen (DPM/mg tissue)", "setting": "pieces of human skin; Azacytidine 100 ug/ml", "result": "92 +/− 13* DPM/mg tissue"}, {"measurement": "IC50", "setting": "pieces of human skin; Homo sapiens, read-out: IC50 of collagen biosynthesis in human skin", "result": "~25", "unit": "µg/mL"}, {"measurement": "Collagen (DPM/cell) with TGF β 1", "setting": "normal human fibroblasts; Azacytidine 1 μg/ml", "result": "8259 +/− 482 DPM/cell"}, {"measurement": "Collagen (DPM/cell) without TGF β 1", "setting": "normal human fibroblasts; Azacytidine 1 μg/ml", "result": "5306 +/− 717 DPM/cell"}, {"measurement": "Collagen (DPM/cell) with TGF β 1", "setting": "normal human fibroblasts; Azacytidine 5 μg/ml", "result": "6801 +/− 1359* DPM/cell"}, {"measurement": "Collagen (DPM/cell) without TGF β 1", "setting": "normal human fibroblasts; Azacytidine 5 μg/ml", "result": "4015 +/− 706* DPM/cell"}, {"measurement": "Collagen (DPM/cell) with TGF β 1", "setting": "normal human fibroblasts; Azacytidine 25 μg/ml", "result": "5183 +/− 816* DPM/cell"}, {"measurement": "Collagen (DPM/cell) without TGF β 1", "setting": "normal human fibroblasts; Azacytidine 25 μg/ml", "result": "2323 +/− 139* DPM/cell"}, {"measurement": "IC50", "setting": "normal human fibroblasts; Fibroblast, stated as similar to the IC50 in human skin, read-out: IC50 of collagen biosynthesis in cultured human fibroblasts", "result": "~25", "unit": "µg/mL"}, {"measurement": "effect on TGF β upregulation of collagen biosynthesis", "setting": "normal human fibroblasts; TGF β stimulated fibroblasts", "result": "inhibited in a dose dependent manner the ability of TGF β to upregulate collagen biosynthesis"}, {"measurement": "reduction of the amount of collagen synthesized", "setting": "normal human fibroblasts; concentration of about 25, basal (without TGF β)", "result": "approximately 55%"}, {"measurement": "effect on basal collagen produced", "setting": "normal human fibroblasts; without TGF β", "result": "inhibited the collagen produced in a dose dependent manner"}]}
